Some test systems named below: SK-OV-3 ovarian; PC-3 prostate; HOP-62 NSCLC; COLO 205 colon; A498 renal; SK-MEL-5 melanoma; SF-268 CNS; SR leukemia; UACC-62 melanoma; HS 578T breast; OVCAR-8 ovarian; MOLT-4 leukemia; MCF7 breast; SNB-75 CNS; MDA-MB-435; NCI-H226 lung; K-562 leukemia.
Experiment in all cases: NCI tumour cell line growth inhibition, 48 h

Here are results for ten molecules from PubChem BioAssay (NCI).

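All cell lines were grown in 96-well plates and treated with compound for 48 hours. TGI: concentration producing complete growth inhibition.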

Take `N#Cc1c(C#N)c(-c2cccc([N+](=O)[O-])c2)n(-c2ccccc2)c1N`: the TGI in the assay on SK-OV-3 ovarian, in the assay on PC-3 prostate, in the assay with HOP-62 NSCLC, in the assay on COLO 205 colon, in the assay with A498 renal and with SK-MEL-5 melanoma was over 100 µM each time. Moreover, the TGI in the assay with SF-268 CNS, in the assay with SR leukemia, in the assay with UACC-62 melanoma, with HS 578T breast, in the assay on OVCAR-8 ovarian and in the assay on MOLT-4 leukemia was over 100 µM in each case. The TGI was over 100 µM in the assay with MCF7 breast; 61 µM in the assay with SNB-75 CNS; over 100 µM with MDA-MB-435; 86.1 µM with NCI-H226 lung; over 100 µM with K-562 leukemia.
For `O=C1c2ccccc2C(=O)c2c(OCC3CO3)ccc(OCC3CO3)c21` (stereo not given), the TGI is 36.2 µM with SK-OV-3 ovarian; 12 µM with PC-3 prostate; 7.09 µM with HOP-62 NSCLC; 9.34 µM in the assay with COLO 205 colon; over 47.5 µM in the assay on A498 renal; 15.5 µM in the assay on SK-MEL-5 melanoma. For the same molecule, the TGI in the assay with SF-268 CNS was determined as 2.29 µM; with SR leukemia, 1.55 µM; in the assay on UACC-62 melanoma it was 7.95 µM; in the assay on HS 578T breast it was 36.8 µM; with OVCAR-8 ovarian, 5.94 µM; with MOLT-4 leukemia, 0.95 µM. Besides, the TGI with MCF7 breast was 2.59 µM; with SNB-75 CNS it was 29.9 µM; with MDA-MB-435 it was 7.61 µM; in the assay with NCI-H226 lung, 35.9 µM; with K-562 leukemia it was 5.96 µM.
Take `COC(=O)[C@H](CCSC)NC(=O)c1ccc(CNC(=O)/C=C/c2cccc(Oc3ccccc3)c2)cc1`: the TGI in the assay with SK-OV-3 ovarian is over 100 µM; with PC-3 prostate, over 100 µM; in the assay with HOP-62 NSCLC it was over 100 µM; with COLO 205 colon, 50.5 µM; in the assay on A498 renal it was 48.3 µM; in the assay on SK-MEL-5 melanoma, 34.5 µM. Moreover, the TGI is over 100 µM with SF-268 CNS; over 100 µM in the assay with SR leukemia; 38.2 µM in the assay on UACC-62 melanoma; over 100 µM with HS 578T breast; over 100 µM with OVCAR-8 ovarian; 33.4 µM with MOLT-4 leukemia. Moreover, the TGI in the assay on MCF7 breast was over 100 µM; in the assay on SNB-75 CNS, over 100 µM; with MDA-MB-435 it was 32.9 µM; with NCI-H226 lung it was over 62.9 µM; with K-562 leukemia, over 78.8 µM.
In the case of `O=C(NO)c1cccc(OCc2ccc(Br)cc2)c1`, the TGI with SK-OV-3 ovarian was over 55.7 µM; in the assay with PC-3 prostate, 49.9 µM; in the assay on HOP-62 NSCLC, 52.8 µM; in the assay on COLO 205 colon it was 27.4 µM; in the assay with A498 renal, 32.2 µM; in the assay on SK-MEL-5 melanoma it was over 27.2 µM. For the same molecule, the TGI was 38.1 µM with SF-268 CNS; 37.3 µM with SR leukemia; 20.6 µM in the assay with UACC-62 melanoma; 75.4 µM with HS 578T breast; 17.4 µM with OVCAR-8 ovarian; 18.3 µM in the assay on MOLT-4 leukemia. The TGI in the assay with MCF7 breast was over 65 µM; in the assay with SNB-75 CNS, over 54.1 µM; with MDA-MB-435, 38.7 µM; with NCI-H226 lung it was 27.6 µM; with K-562 leukemia it was over 47.5 µM.
As for `O=C(NNC(=S)Nc1ccccc1)C12CC3CC(CC(C3)C1)C2`, the TGI with SK-OV-3 ovarian was over 100 µM; in the assay on PC-3 prostate, over 100 µM; with HOP-62 NSCLC, over 100 µM; in the assay on COLO 205 colon, over 73.2 µM; in the assay on A498 renal, over 91.4 µM; in the assay with SK-MEL-5 melanoma, 42.6 µM. For the same molecule, the TGI is over 100 µM with SF-268 CNS; 22.5 µM with SR leukemia; over 100 µM with UACC-62 melanoma; over 100 µM in the assay on HS 578T breast; over 100 µM in the assay with OVCAR-8 ovarian; 60 µM in the assay with MOLT-4 leukemia. Moreover, the TGI with MCF7 breast was over 100 µM; with SNB-75 CNS, over 92.9 µM; with MDA-MB-435 it was over 100 µM; in the assay with NCI-H226 lung, over 86.6 µM; in the assay with K-562 leukemia it was over 81.6 µM.
Turning to `CCOC(=O)Cn1c(=O)c2nc(SC)sc2n(-c2ccc(C)cc2)c1=S`, the TGI with SK-OV-3 ovarian is over 100 µM; in the assay on PC-3 prostate, over 100 µM; with HOP-62 NSCLC, 42.5 µM; in the assay on COLO 205 colon it was over 100 µM; in the assay on A498 renal, over 100 µM; with SK-MEL-5 melanoma, over 100 µM. Further, the TGI in the assay with SF-268 CNS was over 89.2 µM; in the assay with SR leukemia, over 100 µM; in the assay with UACC-62 melanoma, over 100 µM; in the assay on HS 578T breast, over 66.5 µM; in the assay on OVCAR-8 ovarian, over 100 µM; in the assay with MOLT-4 leukemia it was over 100 µM. Besides, the TGI in the assay with MCF7 breast was over 100 µM; with SNB-75 CNS, 44.2 µM; in the assay with MDA-MB-435 it was over 100 µM; in the assay on NCI-H226 lung, 69.6 µM; in the assay on K-562 leukemia, over 100 µM.
Take `COC(=O)c1cc(C#N)[nH]c1-c1ccsc1`: the TGI in the assay with SK-OV-3 ovarian, with PC-3 prostate, in the assay with HOP-62 NSCLC, with COLO 205 colon, in the assay on A498 renal and with SK-MEL-5 melanoma was over 100 µM each time. The TGI in the assay on SF-268 CNS, in the assay with SR leukemia, in the assay with UACC-62 melanoma, with HS 578T breast, in the assay on OVCAR-8 ovarian and in the assay on MOLT-4 leukemia was over 100 µM throughout. The TGI in the assay with MCF7 breast, in the assay with SNB-75 CNS, in the assay with MDA-MB-435, in the assay on NCI-H226 lung and with K-562 leukemia was over 100 µM throughout.
In the case of `CCOC(=O)CSc1nc(-c2ccc(OC)cc2)c(C#N)c(=O)[nH]1`, the TGI with SK-OV-3 ovarian, in the assay on PC-3 prostate, in the assay with HOP-62 NSCLC, with COLO 205 colon, with A498 renal and with SK-MEL-5 melanoma was over 100 µM in each case. In addition, the TGI in the assay with SF-268 CNS, in the assay with SR leukemia, with UACC-62 melanoma, in the assay with HS 578T breast, with OVCAR-8 ovarian and in the assay on MOLT-4 leukemia was over 100 µM throughout. Further, the TGI in the assay on MCF7 breast, in the assay on SNB-75 CNS, in the assay with MDA-MB-435, in the assay on NCI-H226 lung and with K-562 leukemia was over 100 µM in each case.
Turning to `CC1(C)C(O)c2ccccc2OC1N1CCN(C2Oc3ccccc3C(O)C2(C)C)CC1` (stereo not given), the TGI in the assay on SK-OV-3 ovarian, in the assay with PC-3 prostate, in the assay with HOP-62 NSCLC, in the assay with COLO 205 colon, in the assay with A498 renal and in the assay on SK-MEL-5 melanoma was over 100 µM throughout. Also, the TGI with SF-268 CNS, in the assay with SR leukemia, with UACC-62 melanoma, with HS 578T breast, in the assay on OVCAR-8 ovarian and in the assay with MOLT-4 leukemia was over 100 µM each time. The TGI with MCF7 breast, in the assay with SNB-75 CNS, in the assay with MDA-MB-435, in the assay on NCI-H226 lung and in the assay with K-562 leukemia was over 100 µM each time.
For the molecule `CC1=CC(C)C(C)N(CCNC(=O)Nc2ccccc2)c2ccccc21` (stereo not given), the TGI was determined as 65.1 µM in the assay on SK-OV-3 ovarian; 69.2 µM in the assay on PC-3 prostate; 63.4 µM in the assay on HOP-62 NSCLC; 32.6 µM in the assay on COLO 205 colon; 66 µM in the assay with A498 renal; 27.8 µM in the assay on SK-MEL-5 melanoma. In addition, the TGI in the assay with SF-268 CNS was over 100 µM; with SR leukemia it was 46.4 µM; in the assay on UACC-62 melanoma it was 49.4 µM; in the assay on HS 578T breast, 30.3 µM; in the assay on OVCAR-8 ovarian, 54.3 µM; in the assay with MOLT-4 leukemia it was 64.4 µM. Further, the TGI in the assay with MCF7 breast was 50.3 µM; with SNB-75 CNS it was 82.4 µM; in the assay with MDA-MB-435, 75.1 µM; in the assay on NCI-H226 lung it was 72.9 µM; in the assay with K-562 leukemia, over 100 µM.
